Data on 21 molecules can be found in patent US20240376056A1, “PHENYL ACETAMIDE BASED IL-17A MODULATORS AND USES THEREOF” (DiCE Alpha, Inc., priority 2021, published 2024).

A value given as a limit tells only on which side of the number the result lay.

The assay addresses T1, IL-17A/A (Homo sapiens, UniProt Q16552).
T1 construct: purchased Genscript Z03228
T1 sequence (Q16552 24-155): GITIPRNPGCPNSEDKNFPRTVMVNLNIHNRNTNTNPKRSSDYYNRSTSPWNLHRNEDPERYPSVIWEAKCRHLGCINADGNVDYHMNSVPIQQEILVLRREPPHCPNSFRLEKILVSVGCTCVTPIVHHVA
Briefly: HEK-Blue IL-17A/A inhibition assay (SEAP reporter). Type of assay: cell-based. As to conditions: HEK-Blue cells (HEK 293 expressing IL-17RA, IL-17RC, Act1); IL-17A/A stimulation; 20 hours; SEAP read at A630; 4-parameter fit. In short, it runs like this:
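HEK 293 cells engineered with IL-17RA, IL-17RC and Act1 (NFκB-driven SEAP) given titrated compound (top final 10, 1 or 0.3 uM; 0.1% DMSO) just before IL-17A/A, then incubated 20 h. SEAP in media developed with Quanti-Blue, read at A630; IC50 by 4-parameter nonlinear fit.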
Turning to `CC(C)n1nccc1C(=O)N[C@H](C(=O)Nc1ccc([C@H](C)C(=O)N2C[C@@H](F)[C@@H](F)C2)cc1F)C(C1CC1)C1CC1` [Compound 40, N-((S)-1,1-dicyclopropyl-3-((4-((S)-1-((3S,4R)-3,4-difluoropyrrolidin-1-yl)-1-oxopropan-2-yl)-2-fluorophenyl)amino)-3-oxopropan-2-yl)-1-isopropyl-1H-pyrazole-5-carboxamide], the IC50 fell in the range of 100 to 1000 nM. As for `CC(C)n1nccc1C(=O)N[C@H](C(=O)Nc1ccc([C@H](C)C(=O)NC(c2ccccn2)C(F)(F)F)cc1F)C(C1CC1)C1CC1` (stereo partly drawn) [Compound 41, N-((2S)-1,1-dicyclopropyl-3-((2-fluoro-4-((2S)-1-oxo-1-((2,2,2-trifluoro-1-(pyridin-2-yl)ethyl)amino)propan-2-yl)phenyl)amino)-3-oxopropan-2-yl)-1-isopropyl-1 H-pyrazole-5-carboxamide], the IC50 is 100 to 1000 nM. Turning to `CC(C)n1nccc1C(=O)N[C@H](C(=O)Nc1ccc([C@H](C)C(=O)N(CC(F)(F)F)CC(F)(F)F)cc1F)C(C1CC1)C1CC1` [Compound 42, N-((S)-1-((4-((S)-1-(bis(2,2,2-trifluoroethyl)amino)-1-oxopropan-2-yl)-2-fluorophenyl)amino)-3,3-dicyclopropyl-1-oxopropan-2-yl)-1-isopropyl-1H-pyrazole-5-carboxamide], the half-maximal inhibitory concentration (IC50) lay in the range of 100 to 1000 nM. On to `CC(C)n1nccc1C(=O)N[C@H](C(=O)Nc1ccc([C@H](C)C(=O)NC2(C(F)(F)F)COC2)cc1F)C(C1CC1)C1CC1` [Compound 43, N-((S)-1.1-dicyclopropyl-3-((2-fluoro-4-((S)-1-oxo-1-((3-(trifluoromethyl)oxetan-3-yl)amino)propan-2-yl)phenyl)amino)-3-oxopropan-2-yl)-1-isopropyl-1H-pyrazole-5-carboxamide], for which the half-maximal inhibitory concentration (IC50) was more than 1000 nM. With `CC(C)n1nccc1C(=O)N[C@H](C(=O)Nc1ccc([C@H](C)C(=O)NCC(F)(F)C(F)(F)F)cc1F)C(C1CC1)C1CC1` [Compound 44, N-((S)-1,1-dicyclopropyl-3-((2-fluoro-4-((S)-1-oxo-1-((2,2,3,3,3-pentafluoropropyl)amino)propan-2-yl)phenyl)amino)-3-oxopropan-2-yl)-1-isopropyl-1H-pyrazole-5-carboxamide], the IC50 is 100 to 1000 nM. As for `CC(C)n1nccc1C(=O)N[C@H](C(=O)Nc1ccc([C@H](C)C(=O)N2CCOCCC2C(F)(F)F)cc1F)C(C1CC1)C1CC1` (stereo partly drawn) [Compound 45, N-((2S)-1,1-dicyclopropyl-3-((2-fluoro-4-((2S)-1-oxo-1-(5-(trifluoromethyl)-1,4-oxazepan-4-yl)propan-2-yl)phenyl)amino)-3-oxopropan-2-yl)-1-isopropyl-1H-pyrazole-5-carboxamide], the half-inhibitory concentration (IC50) was in the range of 100 to 1000 nM. In the case of `CC(C)n1nccc1C(=O)N[C@H](C(=O)Nc1ccc([C@H](C)C(=O)NC2(C(F)(F)F)CN(C(=O)OC(C)(C)C)C2)cc1F)C(C1CC1)C1CC1` [Compound 46, tert-butyl 3-((S)-2-(4-((S)-3,3-dicyclopropyl-2-(1-isopropyl-1H-pyrazole-5-carboxamido)propanamido)-3-fluorophenyl)propanamido)-3-(trifluoromethyl)azetidine-1-carboxylate], the half-inhibitory concentration (IC50) is more than 1000 nM. Consider `CC(C)n1nccc1C(=O)N[C@H](C(=O)Nc1ccc([C@H](C)C(=O)N2CC(F)CC2C(F)(F)F)cc1F)C(C1CC1)C1CC1` (stereo partly drawn) [Compound 47, N-((2S)-1,1-dicyclopropyl-3-((2-fluoro-4-((2S)-1-(4-fluoro-2-(trifluoromethyl)pyrrolidin-1-yl)-1-oxopropan-2-yl)phenyl)amino)-3-oxopropan-2-yl)-1-isopropyl-1H-pyrazole-5-carboxamide], for which the IC50 is less than 100 nM. Take `CC(C)n1nccc1C(=O)N[C@H](C(=O)Nc1ccc([C@H](C)C(=O)NCC(F)(F)F)cc1F)C1CCC(F)(F)CC1` [Compound 50, N-((S)-1-(4,4-difluorocyclohexyl)-2-((2-fluoro-4-((S)-1-oxo-1-((2,2,2-trifluoroethyl)amino)propan-2-yl)phenyl)amino)-2-oxoethyl)-1-isopropyl-1H-pyrazole-5-carboxamide]: the IC50 fell in the range of 100 to 1000 nM. Turning to `CC(C)n1nccc1C(=O)N[C@H](C(=O)Nc1ccc([C@H](C)C(=O)N(C)CC(F)(F)F)cc1F)C1CCC(F)(F)CC1` [Compound 51, N-((S)-1-(4,4-difluorocyclohexyl)-2-((2-fluoro-4-((S)-1-(methyl(2,2,2-trifluoroethyl)amino)-1-oxopropan-2-yl)phenyl)amino)-2-oxoethyl)-1-isopropyl-1H-pyrazole-5-carboxamide], the IC50 lay within 100 to 1000 nM. As for `CC(C)n1nccc1C(=O)N[C@H](C(=O)Nc1ccc([C@H](C)C(=O)NC2(C(F)(F)F)CNC2)cc1F)C(C1CC1)C1CC1` [Compound 52, N-((S)-1.1-dicyclopropyl-3-((2-fluoro-4-((S)-1-oxo-1-((3-(trifluoromethyl)azetidin-3-yl)amino)propan-2-yl)phenyl)amino)-3-oxopropan-2-yl)-1-isopropyl-1H-pyrazole-5-carboxamide], the concentration for half-maximal inhibition (IC50) was more than 1000 nM. For the molecule `CC(C)n1nccc1C(=O)N[C@H](C(=O)Nc1ccc([C@H](C)C(=O)N[C@H](C)C(F)(F)F)cc1F)C(C1CC1)C1CC1` [Compound 54, N-((S)-1,1-dicyclopropyl-3-((2-fluoro-4-((S)-1-oxo-1-(((R)-1,1,1-trifluoropropan-2-yl)amino)propan-2-yl)phenyl)amino)-3-oxopropan-2-yl)-1-isopropyl-1H-pyrazole-5-carboxamide], the 50% inhibitory concentration (IC50) is more than 1000 nM. Take `CC(C)n1nccc1C(=O)N[C@H](C(=O)Nc1ccc([C@H](C)C(=O)N[C@@H](C)C(F)(F)F)cc1F)C(C1CC1)C1CC1` [Compound 55, N-((S)-1,1-dicyclopropyl-3-((2-fluoro-4-((S)-1-oxo-1-(((S)-1,1,1-trifluoropropan-2-yl)amino)propan-2-yl)phenyl)amino)-3-oxopropan-2-yl)-1-isopropyl-1H-pyrazole-5-carboxamide]: the IC50 fell in the range of 100 to 1000 nM. As to `CC(C)n1nccc1C(=O)N[C@H](C(=O)Nc1ccc([C@H](C)C(=O)N2CCOc3ccccc3C2C(F)(F)F)cc1F)C(C1CC1)C1CC1` (stereo partly drawn) [Compound 56, N-((2S)-1,1-dicyclopropyl-3-((2-fluoro-4-((2S)-1-oxo-1-(5-(trifluoromethyl)-2,3-dihydrobenzo[f][1,4]oxazepin-4(5H)-yl)propan-2-yl)phenyl)amino)-3-oxopropan-2-yl)-1-isopropyl-1H-pyrazole-5-carboxamide], the 50% inhibitory concentration (IC50) was in the range of 100 to 1000 nM. With `CC(C)n1nccc1C(=O)N[C@H](C(=O)Nc1ccc([C@H](C)C(=O)NCC(C)(F)F)cc1F)C(C1CC1)C1CC1` [Compound 57, N-((S)-1,1-dicyclopropyl-3-((4-((S)-1-((2,2-difluoropropyl)amino)-1-oxopropan-2-yl)-2-fluorophenyl)amino)-3-oxopropan-2-yl)-1-isopropyl-1H-pyrazole-5-carboxamide] the figure was 100 to 1000 nM; with `CC(C)n1nccc1C(=O)N[C@H](C(=O)Nc1ccc([C@H](C)C(=O)N2C[C@H](F)C[C@H]2C(F)(F)F)cc1F)C(C1CC1)C1CC1` [Compound 58, N-((S)-1,1-dicyclopropyl-3-((2-fluoro-4-((S)-1-((2S,4R)-4-fluoro-2-(trifluoromethyl)pyrrolidin-1-yl)-1-oxopropan-2-yl)phenyl)amino)-3-oxopropan-2-yl)-1-isopropyl-1H-pyrazole-5-carboxamide], 100 to 1000 nM; with `CC(C)n1nccc1C(=O)N[C@H](C(=O)Nc1ccc([C@H](C)C(=O)N2C[C@@H](F)C[C@@H]2C(F)(F)F)cc1F)C(C1CC1)C1CC1` [Compound 59, N-((S)-1,1-dicyclopropyl-3-((2-fluoro-4-((S)-1-((2R^4S)-4-fluoro-2-(trifluoromethyl)pyrrolidin-1-yl)-1-oxopropan-2-yl)phenyl)amino)-3-oxopropan-2-yl)-1-isopropyl-1H-pyrazole-5-carboxamide], more than 1000 nM.

Turning to `CC(C)n1nccc1C(=O)N[C@H](C(=O)Nc1ccc([C@H](C)C(=O)N2C[C@@H](F)C[C@H]2C(F)(F)F)cc1F)C(C1CC1)C1CC1` [Compound 60, N-((S)-1,1-dicyclopropyl-3-((2-fluoro-4-((S)-1-((2S,4S)-4-fluoro-2-(trifluoromethyl)pyrrolidin-1-yl)-1-oxopropan-2-yl)phenyl)amino)-3-oxopropan-2-yl)-1-isopropyl-1H-pyrazole-5-carboxamide], the half-maximal inhibitory concentration (IC50) is less than 100 nM. With `CCOC(=O)CC(NC(=O)[C@@H](C)c1ccc(NC(=O)[C@@H](NC(=O)c2ccnn2C(C)C)C(C2CC2)C2CC2)c(F)c1)C(F)(F)F` (stereo partly drawn) [Compound 61, ethyl 3-((S)-2-(4-((S)-3,3-dicyclopropyl-2-(1-isopropyl-1H-pyrazole-5-carboxamido)propanamido)-3-fluorophenyl)propanamido)-4,4,4-trifluorobutanoate] the figure was less than 100 nM; with `COC(=O)C(NC(=O)[C@@H](C)c1ccc(NC(=O)[C@@H](NC(=O)c2ccnn2C(C)C)C(C2CC2)C2CC2)c(F)c1)C(F)(F)F` (stereo partly drawn) [Compound 62], 100 to 1000 nM. Regarding `CC(C)n1nccc1C(=O)N[C@H](C(=O)Nc1ccc([C@H](C)C(=O)NC(C(N)=O)C(F)(F)F)cc1F)C(C1CC1)C1CC1` (stereo partly drawn) [Compound 63, N-((2S)-1-((4-((2S)-1-((3-amino-1,1-trifluoro-3-oxopropan-2-yl)amino)-1-oxopropan-2-yl)-2-fluorophenyl)amino)-3,3-dicyclopropyl-1-oxopropan-2-yl)-1-isopropyl-1H-pyrazole-5-carboxamide], the IC50 is less than 100 nM.
